Results from patent publication US12263171B2, “7-, 8-, and 10-substituted amino triazolo quinazoline derivatives as adenosine receptor antagonists, pharmaceutical compositions and their use” (Merck Sharp & Dohme LLC, priority 2018, dated 2025).

How the values were obtained:
[1] = target: human A2b adenosine receptor (Homo sapiens (Human), UniProt P29275); experiment: A2b radioligand filtration binding assay (tritiated proprietary A2b antagonist, HEK293 membranes); settings: for IC50: unstarred values: radioligand binding; for A2B binding % inh. @ 10000 nM: unstarred
In short: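 Displacement of a tritiated proprietary A2b antagonist from membranes of HEK293 cells recombinantly expressing human A2b receptor, measured by filtration and scintillation counting. Percent effect was normalized to total and non-specific binding and fitted with a 4-parameter logistic to give IC50.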

[2] = target: human A2a adenosine receptor (Homo sapiens (Human), UniProt P29274); experiment: A2a receptor affinity radioligand binding assay ([3H] SCH58261, membranes from HEK293 or CHO cells); settings: for IC50: unstarred values: radioligand binding
In short: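 Displacement of tritiated SCH58261 (working dilution 4 nM) from recombinant human A2a receptor membranes (HEK293 or CHO), 60 min at room temperature in Tris pH 7.4/MgCl2 buffer after 15–30 min compound preincubation. Scintillation counting after filtration; normalized percent effect fitted 4-parameter logistic for IC50.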

Sequence of human A2b adenosine receptor (P29275 whole entry): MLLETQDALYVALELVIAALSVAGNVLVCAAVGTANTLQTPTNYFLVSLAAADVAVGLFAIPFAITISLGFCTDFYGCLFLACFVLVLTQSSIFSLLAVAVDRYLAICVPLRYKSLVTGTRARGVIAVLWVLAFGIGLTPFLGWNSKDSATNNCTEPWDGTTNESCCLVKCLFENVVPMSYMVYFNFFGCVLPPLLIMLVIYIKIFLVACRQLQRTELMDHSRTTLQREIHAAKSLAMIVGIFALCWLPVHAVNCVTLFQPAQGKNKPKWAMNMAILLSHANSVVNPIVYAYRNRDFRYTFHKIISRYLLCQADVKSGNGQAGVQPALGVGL
Sequence of human A2a adenosine receptor (P29274 whole entry): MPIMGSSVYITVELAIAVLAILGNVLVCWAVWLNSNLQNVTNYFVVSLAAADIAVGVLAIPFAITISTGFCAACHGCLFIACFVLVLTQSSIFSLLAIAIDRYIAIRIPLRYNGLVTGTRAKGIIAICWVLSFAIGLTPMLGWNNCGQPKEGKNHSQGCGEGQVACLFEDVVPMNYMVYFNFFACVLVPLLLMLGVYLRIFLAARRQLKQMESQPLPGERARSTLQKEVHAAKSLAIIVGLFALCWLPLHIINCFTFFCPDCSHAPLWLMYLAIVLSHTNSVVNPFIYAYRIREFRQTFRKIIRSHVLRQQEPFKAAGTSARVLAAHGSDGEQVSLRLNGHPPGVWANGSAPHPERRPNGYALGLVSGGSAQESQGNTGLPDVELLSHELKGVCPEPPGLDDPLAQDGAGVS

| SMILES | IC50 [1] [µM] | IC50 [2] [µM] | A2B binding % inh. @ 10000 nM [1] [% inh. @ 10000 nM] | A2A binding % inh. @ 10000 nM ([2]; @ 10000 nM, unstarred) [% inh. @ 10000 nM] |
| --- | --- | --- | --- | --- |
| COc1cccc2c1nc(N)n1nc([C@@H]3CCCN(c4cnn(CC5(O)CCC5)c4)C3)nc21 [Example 23, (R)-1-((4-(3-(5-amino-7-methoxy-[1,2,4]-triazolo[1,5-c]quinazolin-2-yl)piperidin-1-yl)-1H-pyrazol-1-yl)methyl)cyclobutan-1-ol] | 0.0642 | 0.001 | – | – |
| Cn1cc(N2CCCC(c3nc4c5c(Cl)ccc(Cl)c5nc(N)n4n3)C2)cn1 (single isomer, unassigned) [Example 169, (R or S)-7, 10-dichloro-2-(1-(1-methyl-1H-pyrazol-4-yl)piperidin-3-yl)-[1,2,4]triazolo[1,5-c]quinazolin-5-amine] | 4.16 | 0.0077 | – | – |
| COc1cccc2c1nc(N)n1nc([C@@H]3CCCN(c4cnn([C@@H]5CCCC[C@]5(C)O)c4)C3)nc21 [Example 42, (1S,2R)-2-(4-((R)-3-(5-amino-7-methoxy-[1,2,4]triazolo[1,5-c]quinazolin-2-yl)piperidin-1-yl)-1H-pyrazol-1-yl)-1-methylcyclohexan-1-ol] | 0.0035 | 0.0012 | – | – |
| COc1cccc2c1nc(N)n1nc([C@@H]3CCCN(c4ccc(=O)n(C)c4)C3)nc21 [Example 88, (R)-5-(3-(5-amino-7-methoxy-[1,2,4]triazolo[1,5-c]quinazolin-2-yl)piperidin-1-yl)-1-methylpyridin-2(1H)-one] | 0.295 | 0.002 | – | – |
| COc1cccc2c1nc(N)n1nc([C@@H]3CCCN(c4nccn4C)C3)nc21 [Example 81, (R)-7-methoxy-2-(1-(1-methyl-1H-imidazol-2-yl)piperidin-3-yl)-[1,2,4]triazolo[1,5-c]quinazolin-5-amine] | 0.813 | 0.0014 | – | – |
| COc1cccc2c1nc(N)n1nc([C@@H]3CCCN(c4cc(C)c(=O)n(C)c4)C3)nc21 [Example 93] | 0.229 | 0.0015 | – | – |
| COc1cccc2c1nc(N)n1nc([C@@H]3CCCN(c4cnn([C@@H]5CCCC[C@@H]5O)c4)C3)nc21 [Example 25] | 0.0057 | 0.0023 | – | – |
| COc1cccc2c1nc(N)n1nc([C@@H]3CCCN(c4ccc(=O)n(C)n4)C3)nc21 [Example 98, (R)-6-(3-(5-amino-7-methoxy-[1,2,4]triazolo[1,5-c]quinazolin-2-yl)piperidin-1-yl)-2-methylpyridazin-3(2H)-one] | 0.691 | 0.0014 | – | – |
| COc1ccc2c(nc(N)n3nc(C4CCCN(c5cnn(C)c5)C4)nc23)c1F (single isomer, unassigned) [Example 166, (R or S)-7-fluoro-8-methoxy-2-(1-(1-methyl-1H-pyrazol-4-yl)piperidin-3-yl)-[1,2,4]triazolo[1,5-c]quinazolin-5-amine] | 0.234 | 0.018 | – | – |
| COc1cccc2c1nc(N)n1nc([C@@H]3CCCN(c4ccc(=O)n(C(F)F)c4)C3)nc21 [Example 92, (R)-5-(3-(5-amino-7-methoxy-[1,2,4]triazolo[1,5-c]quinazolin-2-yl)piperidin-1-yl)-1-(difluoromethyl)pyridin-2(1H)-one] | 0.196 | 0.0007 | – | – |
| COc1cccc2c1nc(N)n1nc([C@@H]3CCC4CCC3N4c3cnn(C)c3)nc21 (mixture of isomers) [Example 130B] | 3.52 | 0.0103 | – | – |
| COc1ccc2c(c1)nc(N)n1nc([C@@H]3CCCN(c4ccc(OC(C)C)nc4)C3)nc21 [Example 192, (R)-2-(1-(6-isopropoxypyridin-3-yl)piperidin-3-yl)-8-methoxy-[1,2,4]triazolo[1,5-c]quinazolin-5-amine] | 0.0227 | 0.0025 | – | – |
| COc1cccc2c1nc(N)n1nc([C@@H]3CCCN(c4cnn(C5CCOCC5)c4)C3)nc21 [Example 21, (R)-7-methoxy-2-(1-(1-(tetrahydro-2H-pyran-4-yl)-1H-pyrazol-4-yl)piperidin-3-yl)-[1,2,4]triazolo[1,5-c]quinazolin-5-amine] | 0.111 | 0.0006 | – | – |
| Cn1cc(N2CCCC(c3nc4c5cccc(O)c5nc(N)n4n3)C2)cn1 (single isomer, unassigned) [Example 165, (R or S)-5-amino-2-(1-(1-methyl-1H-pyrazol-4-yl)piperidin-3-yl)-[1,2,4]triazolo[1,5-c]quinazolin-7-ol] | – | – | 10 | 19 |

Now from value to compound:

| IC50 [1] [µM] | IC50 [2] [µM] | A2B binding % inh. @ 10000 nM [1] [% inh. @ 10000 nM] | A2A binding % inh. @ 10000 nM ([2]; @ 10000 nM, unstarred) [% inh. @ 10000 nM] | SMILES |
| --- | --- | --- | --- | --- |
| 0.125 | 0.0028 | – | – | CCc1ccc2c(c1)nc(N)n1nc([C@@H]3CC[C@H](C)N(c4cnn(CC(C)(C)O)c4)C3)nc21 [Example 207, 1-(4-((2S,5R)-5-(5-amino-8-ethyl-[1,2,4]triazolo[1,5-c]quinazolin-2-yl)-2-methylpiperidin-1-yl)-1H-pyrazol-1-yl)-2-methylpropan-2-ol] |
| 0.0046 | 0.0008 | – | – | COc1cccc2c1nc(N)n1nc(C3CCC(C)N(c4cnn(C(C)(C)CO)c4)C3)nc21 (single isomer, unassigned) [Example 146D] |
| 0.48 | 0.0443 | – | – | Cn1cc(N2CCCC(c3nc4c5ccc(C(F)(F)F)cc5nc(N)n4n3)C2)cn1 (single isomer, unassigned) [Example 174, (R or S)-2-(1-(1-methyl-1H-pyrazol-4-yl)piperidin-3-yl)-8-(trifluoromethyl)-[1,2,4]triazolo[1,5-c]quinazolin-5-amine] |
| 0.323 | 0.0004 | – | – | COc1ccc2c(c1)nc(N)n1nc([C@@H]3CCCN(c4cn([C@@H](C)C(C)(C)O)nc4C)C3)nc21 [Example 186B, (S)-3-(4-((R)-3-(5-amino-8-methoxy-[1,2,4]triazolo[1,5-c]quinazolin-2-yl)piperidin-1-yl)-3-methyl-1H-pyrazol-1-yl)-2-methylbutan-2-ol] |
| 0.0163 | 0.0004 | – | – | COc1cccc2c1nc(N)n1nc([C@@H]3CCCN(c4cnn(C(C)(C)CO)c4)C3)nc21 [Example 54, (R)-2-(4-(3-(5-amino-7-methoxy-[1,2,4]triazolo[1,5-c]quinazolin-2-yl)piperidin-1-yl)-1H-pyrazol-1-yl)-2-methylpropan-1-ol] |
| 0.462 | 0.0004 | – | – | COc1ccc2c(c1)nc(N)n1nc([C@@H]3CCCN(c4cn([C@H](C)C(C)(C)O)nc4C)C3)nc21 [Example 186A] |
| 0.328 | 0.0287 | – | – | C[C@H]1CC[C@@H](c2nc3c4ccc(C5CCC5)cc4nc(N)n3n2)CN1c1cnn(CC(C)(C)O)c1 [Example 209, 1-(4-((2S,5R)-5-(5-amino-8-cyclobutyl-[1,2,4]triazolo[1,5-c]quinazolin-2-yl)-2-methylpiperidin-1-yl)-1H-pyrazol-1-yl)-2-methylpropan-2-ol] |
| 0.151 | 0.0007 | – | – | COc1cccc2c1nc(N)n1nc([C@@H]3CCCN(c4cn(CC(C)(C)O)nc4C(F)F)C3)nc21 [Example 53, (R)-1-(4-(3-(5-amino-7-methoxy-[1,2,4]triazolo[1,5-c]quinazolin-2-yl)piperidin-1-yl)-3-(difluoromethyl)-1H-pyrazol-1-yl)-2-methylpropan-2-ol] |
| – | 0.21 | 27 | – | COc1cccc2c1nc(N)n1nc(C3CC(F)CN(c4cn(CC(C)(C)O)nc4C)C3)nc21 (stereo not shown) [Example 151, 1-(4-(3-(5-amino-7-methoxy-[1,2,4]triazolo[1,5-c]quinazolin-2-yl)-5-fluoropiperidin-1-yl)-3-methyl-1H-pyrazol-1-yl)-2-methylpropan-2-ol] |
